Data reported in patent publication US20230127944A1, “BROAD-SPECTRUM CARBAPENEMS” (priority 2019, published 2023).

Assays:
[1] = test system: P. aeruginosa clinical isolates; assay: expanded MIC profiling, P. aeruginosa clinical isolates; assay type: cell-based; settings: Pseudomonas aeruginosa
Experimental: (§1) To evaluate the activity of selected example compounds against clinical isolates of target species, standard cell-based broth microdilution MIC assays were employed. A panel of 20 clinical isolates of P. aeruginosa and 20 clinical isolates of Methicillin Resistant S. aureus (MRSA) from Lankenau Medical Center (Wynnewood, Pa.) were used. In the set of P. aeruginosa isolates, the compounds were also tested in combination with a β-lactamase inhibitor (taniborbactam), to evaluate the potential benefit of inhibiting β-lactamase enzymes. The assay was conducted in Cation Adjusted Mueller Hinton Broth (CAMHB, BD #212322, BD Diagnostic Systems, Sparks, Md.). Bacteria strains were grown for 3-5 hours in CAMHB. Compounds were added to a microtiter plate in 2-fold serial dilutions in CAMHB. For plates receiving β-lactamase inhibitor, taniborbactam was added to obtain a final fixed concentration of 4 μg/mL. Once the test articles were added, the plates were inoculated according to CLSI broth microdilution method. After inoculation, the plates were incubated for 16-20 hours at 37° C. then the Minimal Inhibitory Concentration (MIC) of the test compound is determined visually. Values for concentration required to inhibit growth of […] (MIC50) and 90% (MIC90) of isolates were determined.

[2] = test system: Methicillin Resistant S. aureus (MRSA) clinical isolates; assay: expanded MIC profiling, MRSA clinical isolates; assay type: cell-based; settings: Staphylococcus aureus
Experimental: as §1

[3] = panel of 20 P. aeruginosa clinical isolates
[4] = panel of S. aureus (MRSA) isolates of Table 5

MIC ([1]; P. aeruginosa clinical isolate Lankenau 11): 1 µg/mL
MIC ([1]; P. aeruginosa clinical isolate Lankenau 12): 0.5 µg/mL
MIC ([1]; P. aeruginosa clinical isolate Lankenau 13): 1 µg/mL
MIC ([1]; P. aeruginosa clinical isolate Lankenau 14): 0.5 µg/mL
MIC ([1]; P. aeruginosa clinical isolate Lankenau 15): 1 µg/mL
MIC ([1]; P. aeruginosa clinical isolate Lankenau 16): 0.5 µg/mL
MIC ([1]; P. aeruginosa clinical isolate Lankenau 17): 1 µg/mL
MIC ([1]; P. aeruginosa clinical isolate Lankenau 18): 0.5 µg/mL
MIC ([1]; P. aeruginosa clinical isolate Lankenau 19): 1 µg/mL
MIC ([1]; P. aeruginosa clinical isolate Lankenau 20): 0.5 µg/mL
MIC ([1]; P. aeruginosa clinical isolate Lankenau 21): 1 µg/mL
MIC ([1]; P. aeruginosa clinical isolate Lankenau 22): 0.5 µg/mL
MIC ([1]; P. aeruginosa clinical isolate Lankenau 23): 0.5 µg/mL
MIC ([1]; P. aeruginosa clinical isolate Lankenau 24): 4 µg/mL
MIC ([1]; P. aeruginosa clinical isolate Lankenau 25): 0.5 µg/mL
MIC ([1]; P. aeruginosa clinical isolate Lankenau 26): < 0.25 µg/mL
MIC ([1]; P. aeruginosa clinical isolate Lankenau 27): 0.5 µg/mL
MIC ([1]; P. aeruginosa clinical isolate Lankenau 28): 0.5 µg/mL
MIC ([1]; P. aeruginosa clinical isolate Lankenau 29): 0.5 µg/mL
MIC ([1]; P. aeruginosa clinical isolate Lankenau 30): 0.5 µg/mL
MIC50 [1, 3]: 0.5 µg/mL
MIC90 [1, 3]: 1 µg/mL
MIC ([2]; ATCC 33591 / MRSA, S. aureus ATCC-33591): 32 µg/mL
MIC ([2]; MRSA, S. aureus clinical isolate LH-SA3): 4 µg/mL
MIC ([2]; MRSA, S. aureus clinical isolate LH-SA9): 4 µg/mL
MIC ([2]; MRSA, S. aureus clinical isolate LH-SA23): 4 µg/mL
MIC ([2]; MRSA, S. aureus clinical isolate LH-SA24): 4 µg/mL
MIC ([2]; MRSA, S. aureus clinical isolate LH-SA26): 4 µg/mL
MIC ([2]; MRSA, S. aureus clinical isolate LH-SA29): 16 µg/mL
MIC ([2]; MRSA, S. aureus clinical isolate LH-SA33): 4 µg/mL
MIC ([2]; MRSA, S. aureus clinical isolate LH-SA34): 8 µg/mL
MIC ([2]; MRSA, S. aureus clinical isolate LH-SA37): 4 µg/mL
MIC ([2]; MRSA, S. aureus clinical isolate LH-SA38): 32 µg/mL
MIC ([2]; MRSA, S. aureus clinical isolate LH-SA39): 4 µg/mL
MIC ([2]; MRSA, S. aureus clinical isolate LH-SA40): 4 µg/mL
MIC ([2]; MRSA, S. aureus clinical isolate LH-SA41): 4 µg/mL
MIC ([2]; MRSA, S. aureus clinical isolate LH-SA42): 8 µg/mL
MIC ([2]; MRSA, S. aureus clinical isolate LH-SA44): 8 µg/mL
MIC ([2]; MRSA, S. aureus clinical isolate LH-SA45): 16 µg/mL
MIC ([2]; MRSA, S. aureus clinical isolate LH-SA48): 4 µg/mL
MIC ([2]; MRSA, S. aureus clinical isolate LH-SA49): 4 µg/mL
MIC ([2]; MRSA, S. aureus clinical isolate LH-SA50): 4 µg/mL
MIC50 [2, 4]: 4 µg/mL
MIC90 [2, 4]: 16 µg/mL
SMILES: C[C@@H](O)[C@H]1C(=O)N2C(C(=O)O)=C(S[C@@H]3CN[C@H](C(=O)N(C)C)C3)[C@H](C)[C@H]12 [Meropenem, reference compound]
